Measurements published in US12522596B2, “Compounds as GLP-1R agonists” (Terns Pharmaceuticals, Inc., priority 2021, dated 2026).
Where two headings read alike, the source gives them in different places.

Assay: Pharmacokinetics in hGLP-1R mice after oral dosing
Format: in vivo, male C57BL/6J hGLP-1R mouse
Details: male, C57BL/6J hGLP-1R, mouse, plasma, po; for AUC0-inf: read-out: AUC0-inf; for MRT inf: read-out: MRT0-inf; for MRT last: read-out: MRT0-last; for concentration at 120 min: hGLP-1R mouse plasma collected at 120 min (IPGTT cohort)
Protocol: IPGTT (120 min)—PK bleeding: 40 μL blood samples (all treatment groups) were collected from mice under the jaw at IPGTT-120 min after blood glucose measurement into pre-chilled EDTA-2K tubes. Blood samples were processed for plasma by centrifugation at 4° C., 3200×g for 10 min. 15 μL plasma was stored at −80° C. for PK analysis. From 4 mice in Group 7 of the PD cohort, whole brain was collected after blood is harvested at 120 min post dose, rinsed with saline and patted dry and placed into a pre-weighed tube and stored at −80° C. collected for PK analysis.
PK bleeding group design is described in Table 9.
PK bleeding: 30 μL blood was collected at 0.25, 0.5, 1, 2, 4, and 8 h. Blood samples were processed for plasma by centrifugation at 4° C., 3200×g for 10 min. 12 μL plasma was collected at −80° C. for further analysis. From 3 mice in Group 7 of the PK cohort, whole brain was collected after blood is harvested at 8 hr post dose, rinsed with saline and patted dry and placed into a pre-weighed tube and stored at −80° C. collected for PK analysis.
For plasma: An aliquot of 3 μL sample was protein precipitated with 60 μL internal standard (100 ng/mL Labetalol & 100 ng/ml Dexamethasone & 100 ng/ml Tolbutamide & 100 ng/mL Verapamil & 100 ng/ml Glyburide & 100 ng/ml Celecoxib in ACN) and then the mixture was vortex-mixed for 10 min at 800 rpm and centrifuged for 15 min at 3220×g, 4° C.
The linear/log trapezoidal rule was applied in obtaining the PK parameters. Individual plasma concentration values that were below the lower limit of quantitation (LOQ) were excluded from the PK parameter calculation. The nominal dose levels and nominal sampling times were used in the calculation of all pharmacokinetic parameters.

[1] = 0.3 mg/kg, hGLP-1R mouse plasma, PO 0.3 mg/kg, read-out: Mean Concentration
[2] = 0.3 mg/kg, hGLP-1R mouse plasma, PO 0.3 mg/kg, individual animals, read-out: Concentration
[3] = 0.3 mg/kg, hGLP-1R mouse plasma, PO 0.3 mg/kg, mean
[4] = 1 mg/kg, hGLP-1R mouse plasma, PO 1 mg/kg, individual animals, read-out: Concentration
[5] = 1 mg/kg, hGLP-1R mouse plasma, PO 1 mg/kg, read-out: Mean Concentration
[6] = 1 mg/kg, hGLP-1R mouse plasma, PO 1 mg/kg, individual mice
[7] = 1 mg/kg, hGLP-1R mouse plasma, PO 1 mg/kg, mean
[8] = 3 mg/kg, hGLP-1R mouse plasma, PO 3 mg/kg, read-out: Mean Concentration
[9] = 3 mg/kg, hGLP-1R mouse plasma, PO 3 mg/kg, mean

N#Cc1ccc(COc2cccc(C3CCN(Cc4nc5ccc(C(=O)O)cc5n4Cc4cncs4)CC3)n2)c(F)c1 [Compound 2]
concentration at 0.5 h [1]: 80.6 ng/mL
concentration at 1 h [2]: 43.3 ng/mL
concentration at 1 h [1]: 49.4 ng/mL
concentration at 2 h (0.3 mg/kg, hGLP-1R mouse plasma, PO 0.3 mg/kg): 10.6 ng/mL
concentration at 4 h [1]: 3.74 ng/mL
concentration at 8 h [2]: 2.34 ng/mL
concentration at 8 h [1]: 1.99 ng/mL
AUC0-inf (0.3 mg/kg, hGLP-1R mouse plasma, PO 0.3 mg/kg, individual mice): 124 ng·h/mL
AUC(0-t) (0.3 mg/kg, hGLP-1R mouse plasma, PO 0.3 mg/kg, individual mice, read-out: AUC0-last): 117 ng·h/mL
Cmax (0.3 mg/kg, hGLP-1R mouse plasma, PO 0.3 mg/kg, individual mice, read-out: Cmax): 63.4 ng/mL
Tmax (0.3 mg/kg, hGLP-1R mouse plasma, PO 0.3 mg/kg, individual mice, read-out: Tmax): 0.5 h
AUC0-inf [3]: 111 ng·h/mL
AUC(0-t) (0.3 mg/kg, hGLP-1R mouse plasma, PO 0.3 mg/kg, mean, read-out: AUC0-last): 107 ng·h/mL
Cmax (0.3 mg/kg, hGLP-1R mouse plasma, PO 0.3 mg/kg, mean, read-out: Cmax): 82.7 ng/mL
MRT inf [3]: 1.7 h
MRT last [3]: 1.4 h
half-life (0.3 mg/kg, hGLP-1R mouse plasma, PO 0.3 mg/kg, mean, read-out: T1/2 (converted)): 1.4 h
Tmax (0.3 mg/kg, hGLP-1R mouse plasma, PO 0.3 mg/kg, mean, read-out: Tmax): 0.417 h
AUC(0-t) (1 mg/kg, hGLP-1R mice, total, PO 1.0 mg/kg, read-out: AUClast Mean): 390 ng·h/mL
Cmax (1 mg/kg, hGLP-1R mice, total, PO 1.0 mg/kg, read-out: Cmax Mean): 283 ng/mL
half-life (1 mg/kg, hGLP-1R mice, total, PO 1.0 mg/kg, read-out: T1/2 (converted)): 1.42 h
Tmax (1 mg/kg, hGLP-1R mice, total, PO 1.0 mg/kg, read-out: Tmax Median): 0.5 h
concentration at 120 min (1 mg/kg, PO 1 mg/kg, read-out: Mean Concentration): 69.8 ng/mL
concentration at 0.25 h [4]: 320 ng/mL
concentration at 0.25 h [5]: 251 ng/mL
concentration at 0.5 h [4]: 329 ng/mL
concentration at 0.5 h [5]: 283 ng/mL
concentration at 1 h [4]: 252 ng/mL
concentration at 1 h [5]: 197 ng/mL
concentration at 2 h (1 mg/kg, hGLP-1R mouse plasma, PO 1 mg/kg): 48.6 ng/mL
concentration at 4 h [4]: 7.58 ng/mL
concentration at 4 h [5]: 7.51 ng/mL
concentration at 8 h [5]: 4.73 ng/mL
AUC0-inf [6]: 507 ng·h/mL
AUC(0-t) (1 mg/kg, hGLP-1R mouse plasma, PO 1 mg/kg, individual mice, read-out: AUC0-last): 498 ng·h/mL
Cmax (1 mg/kg, hGLP-1R mouse plasma, PO 1 mg/kg, individual mice, read-out: Cmax): 329 ng/mL
MRT inf [6]: 1.47 h
MRT last [6]: 1.32 h
half-life (1 mg/kg, hGLP-1R mouse plasma, PO 1 mg/kg, individual mice, read-out: T1/2 (converted)): 1.28 h
Tmax (1 mg/kg, hGLP-1R mouse plasma, PO 1 mg/kg, individual mice, read-out: Tmax): 0.5 h
AUC0-inf [7]: 400 ng·h/mL
AUC(0-t) (1 mg/kg, hGLP-1R mouse plasma, PO 1 mg/kg, mean, read-out: AUC0-last): 390 ng·h/mL
Cmax (1 mg/kg, hGLP-1R mouse plasma, PO 1 mg/kg, mean, read-out: Cmax): 283 ng/mL
MRT inf [7]: 1.57 h
MRT last [7]: 1.35 h
half-life (1 mg/kg, hGLP-1R mouse plasma, PO 1 mg/kg, mean, read-out: T1/2 (converted)): 1.42 h
Tmax (1 mg/kg, hGLP-1R mouse plasma, PO 1 mg/kg, mean, read-out: Tmax): 0.5 h
Tmax (3 mg/kg, hGLP-1R mice, oral, across the doses tested (0.3, 1 and, for Compound 2, 3 mg/kg), read-out: median Tmax): 0.5 h
AUC(0-t) (3 mg/kg, hGLP-1R mice, total, PO 3.0 mg/kg, read-out: AUClast Mean): 2440 ng·h/mL
Cmax (3 mg/kg, hGLP-1R mice, total, PO 3.0 mg/kg, read-out: Cmax Mean): 1820 ng/mL
half-life (3 mg/kg, hGLP-1R mice, total, PO 3.0 mg/kg, read-out: T1/2 (converted)): 2.03 h
Tmax (3 mg/kg, hGLP-1R mice, total, PO 3.0 mg/kg, read-out: Tmax Median): 0.5 h
concentration at 120 min (3 mg/kg, PO 3 mg/kg, read-out: Mean Concentration): 277 ng/mL
concentration at 0.25 h [8]: 1570 ng/mL
concentration at 0.5 h [8]: 1790 ng/mL
concentration at 1 h [8]: 990 ng/mL
concentration at 2 h (3 mg/kg, hGLP-1R mouse plasma, PO 3 mg/kg): 304 ng/mL
concentration at 4 h [8]: 84.4 ng/mL
concentration at 8 h (3 mg/kg, hGLP-1R mouse plasma, PO 3 mg/kg, individual animals, read-out: Concentration): 92.1 ng/mL
concentration at 8 h [8]: 47.5 ng/mL
MRT last (3 mg/kg, hGLP-1R mouse plasma, PO 3 mg/kg, individual mice): 2.04 h
Tmax (3 mg/kg, hGLP-1R mouse plasma, PO 3 mg/kg, individual mice, read-out: Tmax): 0.5 h
AUC0-inf [9]: 2620 ng·h/mL
AUC(0-t) (3 mg/kg, hGLP-1R mouse plasma, PO 3 mg/kg, mean, read-out: AUC0-last): 2440 ng·h/mL
Cmax (3 mg/kg, hGLP-1R mouse plasma, PO 3 mg/kg, mean, read-out: Cmax): 1820 ng/mL
MRT inf [9]: 2.64 h
MRT last [9]: 1.66 h
half-life (3 mg/kg, hGLP-1R mouse plasma, PO 3 mg/kg, mean, read-out: T1/2 (converted)): 2.03 h
Tmax (3 mg/kg, hGLP-1R mouse plasma, PO 3 mg/kg, mean, read-out: Tmax): 0.417 h
half-life (hGLP-1R male mice, oral, across doses, read-out: terminal T1/2): < 2 h
